Structures can show the parent of a compound that is named as a salt.
Columns and labels:
[1] = Liver weight increase test; type: in vivo, DDY strain male mice; details: mice infected with Candida albicans KB-8, survived animals
Excerpt: Liver weight increase test:- • Candida albicans KB-8 was intraveously injected into DDY strain male mice of 5 weeks old, every 20 animals being grouped, at a rate of […] cells per mouse. After infection, the animals were orally medicated with the test compound in the form of 0.5 % methylcellulose suspension once a day for 20 consecutive days, during which observation on the liver weight was continued.
The average liver weight in survived animals as calculated are shown in Table 5, from which it is understood that the liver weight is not increased when the compound of the invention is given at a daily dose of not more than 4 mg/kg, while the liver weight is increased when the compound of Japanese Patent Publn. (unexamined) No. 185571/83 is given at a daily dose of not less than 1 mg/kg.

Candida albicans KB-8 = test: Antifungal activity test (in vivo), Candida albicans infection in mice; details: DDY male mice infected i.v. with 10^7 cells; oral, total dose 20 mg/kg at 0, 5, 24 and 48 hours after infection; 10 days observation; number in brackets is the non-medicated control
Experimental: Antifungal activity test (in vivo):-Candida albicans KB-8 as pre-cultured at 30°C for 4 days was suspended in physiologically saline solution, and the suspension was intravenously injected into DDY strain
male mice of 5 weeks old, every 10 animals being grouped, through the tail vein so as to inoculate a cell number of 10^7 per animal.
(§1) The animals were orally medicated with the test compound in the form of 0.5 % methylcellulose suspension at a total dose of 20 mg per kg of the body weight 0, 5, 24 and 48 hours after the infection, and observation was continued for 10 days after the infection. The results are shown in Table 2, wherein the numeral indicates an average number of survival days of 10 animals as one group in contrast to that of the non-medicated (control) group.
For comparison, the following compounds were also tested: [drawing 6] [drawing 7]

Acute toxicity = details: mouse, in vivo; DDY male mice, oral, 0.5 % methylcellulose suspension, seven days after medication, Probit method
Experimental: Acute toxicity:- • DDY strain male mice of 5 weeks old, every 10 mice being grouped, received orally the test compound in the form of 0.5 % methylcellulose suspension at a dose from five kinds increasing with a common ratio of 1.3, and observation on the death of animals was continued. Seven days after the medication, the LD50 value was calculated from the rate of death according to the Probit method.

[2] = test system: Aspergillus fumigatus MTU 16001; test: Antifungal activity test (in vivo), Aspergillus fumigatus infection in mice; details: DDY male mice infected i.v. with 2 x 10^6 cells, oral; for Survival rate at complete death of non-medicated group (%): total dose 20 mg/kg at 0, 5, 24 and 48 hours; for Average survival day(s): total dose 20 mg/kg, 10 days observation
Experimental: (§2) Antifungal activity test (in vivo):- • Aspergillus fumigatus MTU 16001 or Cryptococcus neoformans MTU 13001 as pre-cultured at 30°C for 4 days was suspended in physiologically saline solution, and the suspension was intravenously injected into DDY strain male mice of 5 weeks old (body weight, 24 - 27 g), every 10 animals being grouped, through the tail vein so as to inoculate a cell number of 2 x 10^6 per animal.
as §1, with “3,” for “2,”

[3] = test system: Cryptococcus neoformans MTU 13001; test: Antifungal activity test (in vivo), Cryptococcus neoformans infection in mice; details: DDY male mice infected i.v. with 2 x 10^6 cells, oral; for Survival rate at complete death of non-medicated group (%): total dose 20 mg/kg at 0, 5, 24 and 48 hours; for Average survival day(s): total dose 20 mg/kg, 10 days observation
Experimental: as §2
as §1, with “3,” for “2,”

[4] = dose 0.5 mg/kg p.o. once a day for 20 consecutive days
[5] = dose 1.0 mg/kg p.o. once a day for 20 consecutive days
[6] = dose 2.0 mg/kg p.o. once a day for 20 consecutive days
[7] = dose 4.0 mg/kg p.o. once a day for 20 consecutive days
[8] = dose 8.0 mg/kg p.o. once a day for 20 consecutive days

Compound | Average weight of liver [1, 4] | Average weight of liver [1, 5] | Average weight of liver [1, 6] | Average weight of liver [1, 7] | Average weight of liver [1, 8] | Average survival days (control) (Candida albicans KB-8) | LD50 at 168 h (Acute toxicity) | Survival rate at complete death of non-medicated group (%) [2] | Average survival day(s) [2] | Survival rate at complete death of non-medicated group (%) [3] | Average survival day(s) [3]
CCCCC[S+]([O-])CC(O)(Cn1cncn1)c1ccc(Cl)cc1Cl (single isomer, unassigned) [1A, 2-(2,4-dichlorophenyl)-3-n-pentylsulfinyl-l-(l,2,4-triazol-1-yl)propan-2-ol oxalate] | 1.20 g | 1.18 g | 1.15 g | 1.25 g | 1.60 g | 9.0 (1.2) days | 1740 mg/kg |  |  |  | 
CC(C)CC[S+]([O-])CC(O)(Cn1cncn1)c1ccc(Cl)cc1Cl (single isomer, unassigned) [3A] |  |  |  |  |  | 7.7 (1.2) days | > 2000 mg/kg |  |  |  | 
CCCC(C)[S+]([O-])CC(O)(Cn1cncn1)c1ccc(Cl)cc1Cl (single isomer, unassigned) [4A] |  |  |  |  |  | 9.2 (1.2) days | > 1500 mg/kg |  |  |  | 
CCC(CC)[S+]([O-])CC(O)(Cn1cncn1)c1ccc(Cl)cc1Cl (single isomer, unassigned) [5A] |  |  |  |  |  | 8.9 (1.2) days | > 2000 mg/kg |  |  |  | 
CCC(C)(C)[S+]([O-])CC(O)(Cn1cncn1)c1ccc(Cl)cc1Cl (stereo not drawn) [Compound No. 2A, 2-(2,4-dichlorophenyl)-3-tert-pentylsulfinyl-1-(1,2,4-triazol-1-yl)propan-2-ol] |  |  |  |  |  | 9.7 (1.2) days | 1830 mg/kg | 70% | 311000 s | 90% | 743000 s
CS(=O)(=O)CC(O)(Cn1cncn1)c1ccc(Cl)cc1Cl (stereo not drawn) [I, reference compound] | 1.30 g | 1.50 g | 1.70 g | 1.85 g | 1.90 g | 9.6 (1.2) days | 770 mg/kg | 60% | 233000 s | 80% | 674000 s
CCC(C)(C)S(=O)(=O)CC(O)(Cn1cncn1)c1ccc(Cl)cc1Cl (stereo not drawn) [II, reference compound] |  |  |  |  |  | 1.4 (1.0) days |  |  |  |  | 
CC(=O)N1CCN(c2ccc(OCC3COC(Cn4ccnc4)(c4ccc(Cl)cc4Cl)O3)cc2)CC1 (stereo not drawn) [Ketoconazole, reference compound] |  |  |  |  |  | 4.8 (0.8) days | 1100 mg/kg |  |  |  | 

— patent EP0140154A2, “1,2,4-Triazolylpropanols, and their production and use” (SUMITOMO CHEMICAL COMPANY, LIMITED, priority 1983, dated 1985)
